Source: paper PMC11573166, “Sodium-dependent glucose co-transport proteins (SGLTs) are not involved in human glucose taste detection” (PLOS ONE, 2024)

Target: T1, human SGLT1 (hSGLT1) (Homo sapiens, UniProt P13866)
T1 construct: gene SLC5A1; Full length human SGLT1 (NP_000334)
T1 sequence (P13866 1-664): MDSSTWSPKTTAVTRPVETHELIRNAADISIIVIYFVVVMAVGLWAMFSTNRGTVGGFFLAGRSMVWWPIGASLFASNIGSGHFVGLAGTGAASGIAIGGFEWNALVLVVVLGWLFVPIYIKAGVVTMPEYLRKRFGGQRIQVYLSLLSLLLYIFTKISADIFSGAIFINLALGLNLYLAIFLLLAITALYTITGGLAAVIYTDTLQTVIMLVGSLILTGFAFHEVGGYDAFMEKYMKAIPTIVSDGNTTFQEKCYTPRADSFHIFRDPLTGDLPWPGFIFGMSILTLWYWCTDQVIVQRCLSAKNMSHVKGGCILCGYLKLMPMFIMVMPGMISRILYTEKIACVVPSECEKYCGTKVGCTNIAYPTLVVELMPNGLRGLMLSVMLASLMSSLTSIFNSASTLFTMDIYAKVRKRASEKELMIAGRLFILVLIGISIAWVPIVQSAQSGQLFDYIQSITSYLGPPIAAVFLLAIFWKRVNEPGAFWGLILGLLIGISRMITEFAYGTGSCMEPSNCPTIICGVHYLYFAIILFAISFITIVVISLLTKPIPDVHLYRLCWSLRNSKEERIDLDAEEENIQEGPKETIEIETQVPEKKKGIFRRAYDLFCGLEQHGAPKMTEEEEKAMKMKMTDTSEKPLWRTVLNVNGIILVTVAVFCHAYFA
Assay: FLIPR membrane potential assay in CHO cells transiently expressing hSGLT1; mock-transfected cells did not respond
Type: cell-based

EC50: 452 µM
Structure (SMILES): OC[C@H]1OC(O)[C@H](O)[C@@H](O)[C@@H]1O (stereo partly drawn) [D-glucose]
